According to paper PMC10291553, “Exploring Structure–Activity Relationships in Photodynamic Therapy Anticancer Agents Based on Ir(III)-COUPY Conjugates” (Journal of Medicinal Chemistry, 2023):
Where two headings read alike, the source gives them in different places.

How the values were obtained:
A375 = assay: Photo- and cytotoxic activity determination (MTT), A375 cells; type: cell-based, human; conditions: normoxia; for IC50: 48 h drug-free medium; for A375 PI (phototherapeutic index), IC50 dark/IC50 irradiated: 520 nm, dark tested up to 100 μM
Source text: (§1) Having shown that the Ir(III)-COUPY conjugates can sensitize both type I and II ROS through spectroscopic techniques and readily internalize into living cells, their photocytotoxicity was screened in various cancer cell lines. This screening included two representative melanoma cell lines (human A375 and […] human SK-MEL-28) and cancer cells with resistance to the clinical drug cisplatin. For the latter, both sensitive and cisplatin-resistant ovarian cancer cells (A2780 and A2780cis) as well as HeLa cells, which also show a degree of chemoresistance to the platinum anticancer drug in vitro,[54] were used. For the determination of dark and light cytotoxicity, dose–response curves were assayed from both conditions to provide the correspondent IC50 values, which correspond to the concentration needed for inhibition of cell growth by 50%. Phototherapeutic index (PI) was calculated as the ratio of dark to light IC50 value for each compound.
(§2) A375, HeLa, and SK-MEL-28 cells were cultured in Dulbecco’s modified Eagle medium (DMEM) supplemented with 10% FBS, L-glutamine, and 1% penicillin–streptomycin. A2780 and A2780cis cells were grown in RPMI-1640 cell medium supplemented with 10% fetal bovine serum (FBS) and 2 mM L-glutamine. Acquired resistance to cisplatin in the A2780cis cell line was maintained by adding cisplatin 1 μM to culture medium every second passage. Cells were cultured in a humidified incubator at 310 K with 5% CO2 atmosphere and subcultured two or three times a week with appropriate densities and were confirmed to be mycoplasma-free using a standard Hoechst DNA staining method.
(§3) A2780, A2780cis, HeLa, A375, and SK-MEL-28 cells were maintained at logarithmic growth-phase and cultured in 96-well plates at a density of 5000 cells/well in complete medium for 24 h at 310 K, 5% CO2 in a humidified incubator. For hypoxia experiments, a hypoxia condition was set up by Tissue Culture Service at University of Murcia using nitrogen (N2) to displace O2 down to a minimum of 2% in a Forma Steri-Cycle i160 incubator (Thermo Fisher Scientific). Serial dilutions of the compounds were added at the final concentrations in the range of 0–100 μM in a final volume of 100 μL per well. A light-based treatment schedule was performed as follows: 1 h incubation with the compounds in the dark, followed by 1 h incubation under irradiation conditions by placing the Photoreactor EXPO-LED from Luzchem (Canada) fitted with green lamps (final light intensity applied of 1.5 mW/cm^2 at λmax = 520 nm) inside the CO2 incubator. All the cell culture plates subjected to light irradiation included untreated controls to verify that cell viability was not affected by light. Then, treatment-containing media was removed, and fresh media was added for a 48 h cell recovery period; the temperature throughout the experiment remained at 310 K. Dark control samples were placed in the same dark conditions and then kept incubated for 1 h in the dark in the humidified CO2 incubator. Medium was then aspirated by suction, cells were loaded with 50 μL of MTT solution (1 mg/mL) for additional 4 h and then removed, and 50 μL of DMSO was added to solubilize the purple formazan crystals formed in active cells. The absorbance was measured at 570 nm using a microplate reader (FLUOstar Omega), and the IC50 values were calculated based on the inhibitory rate curves using the following equation [drawing 4] 4 where I represents the percentage inhibition of viability observed, Imax is the maximal inhibitory effect, IC50 is the concentration that inhibits 50% of maximal growth, C is the concentration of the treatment, and n is the slope of the semi-logarithmic dose–response sigmoidal curves. The non-linear fitting was performed using SigmaPlot 14.0 software. All experiments were performed in three independent studies with n = 3 replicates per concentration level. For a detailed phototoxicity procedure, ref ([43]) includes technical explanations.

A2780cis cells = assay: Photo- and cytotoxic activity determination (MTT), A2780cis cells, normoxia or hypoxia; type: cell-based; conditions: for Hypoxia PI (phototherapeutic index) / Normoxia PI (phototherapeutic index): dark tested up to 250 μM; for A2780cis PI (phototherapeutic index), IC50 dark/IC50 irradiated: dark tested up to 100 μM
Source text: as §1, §2
as §3, with “Serial dilutions of the compounds were added at the final concentrations in the range of 0–100 μM in a final volume of 100 μL per well.” left out

HeLa = assay: Photo- and cytotoxic activity determination (MTT), HeLa cells; type: cell-based; conditions: normoxia; for HeLa PI (phototherapeutic index), IC50 dark/IC50 irradiated: dark tested up to 100 μM
Source text: as §1, §2, §3

A2780 = assay: Photo- and cytotoxic activity determination (MTT), A2780 cells; type: cell-based; conditions: normoxia; for A2780 PI (phototherapeutic index), IC50 dark/IC50 irradiated: dark tested up to 100 μM
Source text: as §1, §2, §3

[1] = Homo sapiens, A-375, 1 h incubation + 1 h green light 520 nm, 1.5 mW cm^–2, read-out: A375 light IC50
[2] = Homo sapiens, A-375, kept in the dark, 2 h treatment, read-out: A375 dark IC50
[3] = 250 μM, A2780cis, 2 h incubation in the dark, 48 h drug-free recovery, hypoxia, read-out: Partial inhibition (% of cell growth inhibition with respect to untreated controls), Hypoxia
[4] = 250 μM, A2780cis, 2 h incubation in the dark, 48 h drug-free recovery, normoxia, read-out: Partial inhibition (% of cell growth inhibition with respect to untreated controls), Normoxia
[5] = A2780cis, hypoxia 2% O2, 520 nm
[6] = A2780cis, hypoxia 2% O2, dark, tested up to 250 μM, read-out: Hypoxia Dark IC50
[7] = A2780cis, hypoxia, 520 nm, read-out: A2780cis Light 520 nm IC50 (microM) Hypoxia
[8] = A2780cis, hypoxia, dark, read-out: A2780cis Dark IC50 (microM) Hypoxia
[9] = A2780cis, normoxia 21% O2, 520 nm
[10] = A2780cis, normoxia 21% O2, dark, tested up to 250 μM, read-out: Normoxia Dark IC50
[11] = A2780cis, normoxia, 1 h incubation + 1 h green light 520 nm, 1.5 mW cm^–2, 48 h drug-free medium, read-out: A2780cis light IC50
[12] = A2780cis, normoxia, dark, up to 250 microM, read-out: A2780cis Dark IC50 (microM) Normoxia
[13] = A2780cis, normoxia, kept in the dark, tested up to 100 μM, 2 h treatment, 48 h drug-free medium, read-out: A2780cis dark IC50
[14] = Homo sapiens, HeLa, 1 h incubation + 1 h green light 520 nm, 1.5 mW cm^–2, 48 h drug-free medium, read-out: HeLa light IC50
[15] = Homo sapiens, HeLa, kept in the dark, 2 h treatment, 48 h drug-free medium, read-out: HeLa dark IC50
[16] = Homo sapiens, A2780, 1 h incubation + 1 h green light 520 nm, 1.5 mW cm^–2, 48 h drug-free medium, read-out: A2780 light IC50
[17] = Homo sapiens, A2780, kept in the dark, 2 h treatment, 48 h drug-free medium, read-out: A2780 dark IC50

SMILES | IC50 (A375; [1]) [µM] | IC50 (A375; [2]) [µM] | A375 PI (phototherapeutic index), IC50 dark/IC50 irradiated (A375) | inhibition at 250 µM (A2780cis cells; [3]) [%] | inhibition at 250 µM (A2780cis cells; [4]) [%] | Hypoxia PI (phototherapeutic index) (A2780cis cells; [5]) | IC50 (A2780cis cells; [6]) [µM] | IC50 (A2780cis cells; [7]) [µM] | IC50 (A2780cis cells; [8]) [µM] | Normoxia PI (phototherapeutic index) (A2780cis cells; [9]) | IC50 (A2780cis cells; [10]) [µM] | IC50 (A2780cis cells; [11]) [µM] | IC50 (A2780cis cells; [12]) [µM] | A2780cis PI (phototherapeutic index), IC50 dark/IC50 irradiated (A2780cis cells; normoxia, 520 nm) | IC50 (HeLa; [14]) [µM] | IC50 (HeLa; [15]) [µM] | HeLa PI (phototherapeutic index), IC50 dark/IC50 irradiated (HeLa; 520 nm) | IC50 (A2780; [16]) [µM] | IC50 (A2780; [17]) [µM] | A2780 PI (phototherapeutic index), IC50 dark/IC50 irradiated (A2780; 520 nm) | further results
CCN(CC)c1ccc2c(c1)O/C(=C(/C#N)c1cc[n+](C)cc1)C=C2C [1a] | 1.1 ± 0.1 | > 100 | > 89 | 2.1 ± 0.4 | 3.5 ± 0.9 | > 100.0 | > 250 | 2.5 ± 0.2 | > 250 | > 119.1 | > 250 | 2.1 ± 0.2 | > 250 | > 48 | 5.8 ± 0.4 | > 100 | > 17 | 5.2 ± 0.5 | > 100 | > 19 | IC50 (A2780cis cells; [13]): > 100 µM
CC1=C/C(=C(\C#N)c2cc[n+](C)cc2)Oc2ccccc21 [1b] | 10 ± 2 | > 100 | > 10 | 4.5 ± 0.6 | 24 ± 3 | – | > 250 | > 250 | > 250 | – | > 250 | – | > 250 | – | > 100 | > 100 | – | > 100 | > 100 | – | IC50 (A2780cis cells; A2780cis, hypoxia 2% O2, 1 h incubation + 1 h green light 520 nm, 48 h drug-free, read-out: Hypoxia 520 nm IC50): > 250 µM; IC50 (A2780cis cells; A2780cis, normoxia 21% O2, 1 h incubation + 1 h green light 520 nm, 48 h drug-free, read-out: Normoxia 520 nm IC50): > 250 µM; IC50 (A2780cis cells; A2780cis, normoxia, 520 nm, read-out: A2780cis Light 520 nm IC50 (microM) Normoxia): > 250 µM; IC50 (HeLa; Homo sapiens, HeLa, 520 nm, read-out: HeLa Light 520 nm IC50 (microM) Normoxia): > 100 µM; IC50 (HeLa; Homo sapiens, HeLa, dark, read-out: HeLa Dark IC50 (microM) Normoxia): > 100 µM; IC50 (A2780; Homo sapiens, A2780, 520 nm, read-out: A2780 Light 520 nm IC50 (microM) Normoxia): > 100 µM; IC50 (A2780; Homo sapiens, A2780, dark, read-out: A2780 Dark IC50 (microM) Normoxia): > 100 µM
CC1=C/C(=C(\C#N)c2cc[n+](C)cc2)Oc2c1cc1c3c2CCCN3CCC1 [1c] | 0.31 ± 0.02 | 9.9 ± 0.5 | 32 | 100 | 100 | 36.4 | – | 0.6 ± 0.1 | 20 ± 2 | 100.0 | – | 0.15 ± 0.04 | – | 100 | 1.1 ± 0.8 | 26 ± 4 | 24 | 0.09 ± 0.01 | 5.1 ± 0.9 | 57 | IC50 (A2780cis cells; [13]): 15 ± 2 µM
CCCCn1c2[n+](c3cc(C(=O)OC)ccc31)[Ir-3]13([c]4ccccc4-c4[nH]c5ccccc5[n+]41)([c]1ccccc1-c1[nH]c4ccccc4[n+]13)[n+]1c-2ccc2ccccc21 [2a] | – | – | > 48 | – | – | > 22.7 | > 250 | – | – | > 71.4 | > 250 | – | – | > 29 | – | – | > 1.3 | – | – | > 25 | IC50 (A375; 1 h incubation + 1 h green light 520 nm, 1.5 mW cm^–2, read-out: A375 light IC50): 2.1 ± 0.3 µM; IC50 (A375; kept in the dark, 2 h treatment, read-out: A375 dark IC50): > 100 µM; Partial inhibition (% of cell growth inhibition with respect to untreated controls), Hypoxia (A2780cis cells; 250 μM, A2780cis, 2 h incubation in the dark, 48 h drug-free recovery, hypoxia): 56 ± 6%; Partial inhibition (% of cell growth inhibition with respect to untreated controls), Normoxia (A2780cis cells; 250 μM, A2780cis, 2 h incubation in the dark, 48 h drug-free recovery, normoxia): 62 ± 4%; IC50 (A2780cis cells; hypoxia, 520 nm, read-out: A2780cis Light 520 nm IC50 (microM) Hypoxia): 11 ± 2 µM; IC50 (A2780cis cells; hypoxia, dark, read-out: A2780cis Dark IC50 (microM) Hypoxia): > 250 µM; IC50 (A2780cis cells; normoxia, 1 h incubation + 1 h green light 520 nm, 1.5 mW cm^–2, 48 h drug-free medium, read-out: A2780cis light IC50): 3.5 ± 0.4 µM; IC50 (A2780cis cells; normoxia, dark, up to 250 microM, read-out: A2780cis Dark IC50 (microM) Normoxia): > 250 µM; IC50 (A2780cis cells; normoxia, kept in the dark, tested up to 100 μM, 2 h treatment, 48 h drug-free medium, read-out: A2780cis dark IC50): > 100 µM; IC50 (HeLa; 1 h incubation + 1 h green light 520 nm, 1.5 mW cm^–2, 48 h drug-free medium, read-out: HeLa light IC50): 75 ± 6 µM; IC50 (HeLa; kept in the dark, 2 h treatment, 48 h drug-free medium, read-out: HeLa dark IC50): > 100 µM; IC50 (A2780; 1 h incubation + 1 h green light 520 nm, 1.5 mW cm^–2, 48 h drug-free medium, read-out: A2780 light IC50): 4 ± 1 µM; IC50 (A2780; kept in the dark, 2 h treatment, 48 h drug-free medium, read-out: A2780 dark IC50): > 100 µM
